Assay results reported in PubChem BioAssay (NCI).
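Five concentrations, 48 hours, 96-well plates. At the TGI there is no net growth.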

Key:
Test in all cases: growth of human tumour cells (NCI), 48 h
MALME-3M melanoma = test system: MALME-3M melanoma
KM12 colon = test system: KM12 colon
HCT-116 colon = test system: HCT-116 colon
TK-10 renal = test system: TK-10 renal
SF-295 CNS = test system: SF-295 CNS
A549 NSCLC = test system: A549 NSCLC
NCI-H522 lung = test system: NCI-H522 lung
MOLT-4 leukemia = test system: MOLT-4 leukemia
NCI-H460 lung = test system: NCI-H460 lung
NCI-H23 lung = test system: NCI-H23 lung
OVCAR-5 ovarian = test system: OVCAR-5 ovarian
SNB-19 CNS = test system: SNB-19 CNS
MDA-MB-435 = test system: MDA-MB-435
HL-60(TB) leukemia = test system: HL-60(TB) leukemia
A498 renal = test system: A498 renal
SR leukemia = test system: SR leukemia
HCT-15 colon = test system: HCT-15 colon
SF-539 CNS = test system: SF-539 CNS
K-562 leukemia = test system: K-562 leukemia
PC-3 prostate = test system: PC-3 prostate
MDA-MB-231 breast = test system: MDA-MB-231 breast
786-0 renal = test system: 786-0 renal
EKVX NSCLC = test system: EKVX NSCLC
NCI-H226 lung = test system: NCI-H226 lung
IGROV1 ovarian = test system: IGROV1 ovarian
OVCAR-4 ovarian = test system: OVCAR-4 ovarian
DU-145 prostate = test system: DU-145 prostate
ACHN renal = test system: ACHN renal
SN12C renal = test system: SN12C renal
RPMI-8226 leukemia = test system: RPMI-8226 leukemia
OVCAR-8 ovarian = test system: OVCAR-8 ovarian
UACC-257 melanoma = test system: UACC-257 melanoma
MCF7 breast = test system: MCF7 breast
OVCAR-3 ovarian = test system: OVCAR-3 ovarian
NCI/ADR-RES ovarian = test system: NCI/ADR-RES ovarian
SK-OV-3 ovarian = test system: SK-OV-3 ovarian
SK-MEL-28 melanoma = test system: SK-MEL-28 melanoma
UACC-62 melanoma = test system: UACC-62 melanoma
HT29 colon = test system: HT29 colon
LOX IMVI melanoma = test system: LOX IMVI melanoma
HS 578T breast = test system: HS 578T breast
CCRF-CEM leukemia = test system: CCRF-CEM leukemia
MDA-N = test system: MDA-N
COLO 205 colon = test system: COLO 205 colon
SF-268 CNS = test system: SF-268 CNS
U251 CNS = test system: U251 CNS
HOP-62 NSCLC = test system: HOP-62 NSCLC
SK-MEL-5 melanoma = test system: SK-MEL-5 melanoma
HCC-2998 colon = test system: HCC-2998 colon

O=c1cc(NNc2ccccc2)[nH]c(=O)[nH]1
TGI (MALME-3M melanoma): 34.4 µM | TGI (KM12 colon): 32.8 µM | TGI (HCT-116 colon): 32.6 µM | TGI (TK-10 renal): > 100 µM | TGI (SF-295 CNS): > 100 µM | TGI (A549 NSCLC): > 100 µM | TGI (NCI-H522 lung): 46.2 µM | TGI (MOLT-4 leukemia): 66.1 µM | TGI (NCI-H460 lung): 98.9 µM | TGI (NCI-H23 lung): > 100 µM | TGI (OVCAR-5 ovarian): > 100 µM | TGI (SNB-19 CNS): 35.5 µM | TGI (MDA-MB-435): 33.7 µM | TGI (HL-60(TB) leukemia): 64.6 µM | TGI (A498 renal): > 100 µM | TGI (SR leukemia): 84.6 µM | TGI (HCT-15 colon): 30 µM | TGI (SF-539 CNS): > 100 µM | TGI (K-562 leukemia): 91.1 µM | TGI (PC-3 prostate): 36.3 µM | TGI (MDA-MB-231 breast): 29.3 µM | TGI (786-0 renal): 29.6 µM | TGI (EKVX NSCLC): > 100 µM | TGI (NCI-H226 lung): 36 µM | TGI (IGROV1 ovarian): > 100 µM | TGI (OVCAR-4 ovarian): 29.5 µM | TGI (DU-145 prostate): > 100 µM | TGI (ACHN renal): 26.1 µM | TGI (SN12C renal): 49.4 µM | TGI (RPMI-8226 leukemia): 59.9 µM | TGI (OVCAR-8 ovarian): 46.1 µM | TGI (UACC-257 melanoma): 31.7 µM | TGI (MCF7 breast): 26.3 µM | TGI (OVCAR-3 ovarian): 30.9 µM | TGI (NCI/ADR-RES ovarian): 67.9 µM | TGI (SK-OV-3 ovarian): > 100 µM | TGI (SK-MEL-28 melanoma): 23.2 µM | TGI (UACC-62 melanoma): 28.5 µM | TGI (HT29 colon): 39 µM | TGI (LOX IMVI melanoma): 42.7 µM | TGI (HS 578T breast): > 100 µM | TGI (CCRF-CEM leukemia): > 100 µM | TGI (MDA-N): 35.1 µM | TGI (COLO 205 colon): 31.8 µM | TGI (SF-268 CNS): 99.6 µM | TGI (U251 CNS): 31.9 µM | TGI (HOP-62 NSCLC): > 100 µM | TGI (SK-MEL-5 melanoma): > 100 µM | TGI (HCC-2998 colon): 39.9 µM
